Several values for one entry are separate records, joined by “and”; a condition that tells them apart may be missing. Equal entries are not always repeated.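 Protocol summary: plate cells (96-well), add compound at 5 concentrations, incubate 48 h, interpolate endpoints linearly. GI50 is the concentration that inhibits growth by half. Definition used: TGI = concentration required for complete inhibition of growth.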
Legend:
Test in all cases: inhibition of tumour cell growth, NCI panel, 48 h
[1] = test system: 786-0 renal
[2] = test system: HT29 colon
[3] = test system: KM12 colon
[4] = test system: LOX IMVI melanoma
[5] = test system: MALME-3M melanoma
[6] = test system: NCI-H460 lung
[7] = test system: NCI/ADR-RES ovarian
[8] = test system: SF-539 CNS
[9] = test system: SK-MEL-28 melanoma
[10] = test system: SNB-19 CNS

SMILES | GI50 [1] | TGI [1] [µM] | GI50 [2] | TGI [2] [µM] | GI50 [3] | TGI [3] [µM] | GI50 [4] | TGI [4] [µM] | GI50 [5] [µM] | TGI [5] [µM] | GI50 [6] | TGI [6] [µM] | GI50 [7] | TGI [7] [µM] | GI50 [8] | TGI [8] | GI50 [9] [µM] | TGI [9] [µM] | GI50 [10] | TGI [10] [µM]
O=C1/C(=C\c2ccc(Cl)cc2)CN(C(=O)c2ccccc2)C/C1=C\c1ccc(Cl)cc1 | 2.19 µM | 4.6 | 1.66 µM | 5 | 1.2 µM | 3.18 | 0.771 µM | 2.26 | 9.17 | 51.7 | 5.97 µM | > 84.7 | 3.59 µM | 19.7 | 2.15 µM | 5.13 µM | 2.94 | 9.68 | 3.27 µM | 19.3
Clc1ccc(Nc2ncnc3ccccc23)cc1 | 64.7 µM | > 100 | 55.3 µM | > 100 | 47.7 µM | > 100 | 46.8 µM | > 100 | 33.9 | > 100 | 43.7 µM | > 100 | 53.7 µM | > 100 | > 100 µM | > 100 µM | > 100 | > 100 | > 100 µM | > 100
Cc1ccc(NC(=O)CC2SC(=Nc3cccc(Cl)c3C)NC2=O)cc1 (stereo unspecified) |  | > 100 |  | > 100 |  | > 100 |  | > 100 |  | > 100 |  | > 100 |  |  |  | > 100 µM |  | > 100 |  | > 100
COc1cc(/C=C(\C)c2ccc3c(c2)OCO3)cc(OC)c1OC |  | > 100 |  | > 100 |  | > 100 |  | > 100 |  | 62.1 |  | > 100 |  |  |  | 58.7 µM |  | > 100 |  | > 100
CCOC(=O)c1c2c(n(Cc3ccccc3)c1C)-c1nc[nH]c1C(=O)C2=O | 18.1 µM | 32.1 | 28.9 µM | 76.4 | 13.9 µM | 27.7 | 14.9 µM | 28.1 | 11.3 | 23.9 | 11.2 µM | 23.2 |  |  | 17.7 µM | 31.9 µM | 19.3 | 34.1 | 17 µM | 30.7
CN(CC(=O)O)S(=O)(=O)c1ccc(Cl)cc1 |  | > 100 |  | > 100 |  | > 100 |  | > 100 |  | > 100 |  | > 100 |  |  |  | > 100 µM |  | > 100 |  | > 100
NC(=S)N/N=C/c1cn(CCCl)c2ccccc12 |  | > 100 |  | > 100 |  | > 100 |  | > 100 |  | > 100 |  |  |  |  |  |  |  | > 100 |  | > 100
O=C(NCCNc1nccc(-c2c(-c3ccc(F)cc3)nc3sccn23)n1)Nc1cccc(C(F)(F)F)c1 | 5.16 µM | 24.9 | 6.44 µM | 28 | 6.43 µM | 23.9 | 5.36 µM | 20.7 |  |  | 4.51 µM | 17.5 | 4.38 µM | 64.2 | 11.5 µM | 26.7 µM | 7.76 | 20.9 | 7.93 µM | 36.8
OCC(O)COc1ccc(F)cc1 (stereo unspecified) |  | > 100 |  | > 100 |  | > 100 |  | > 100 |  | > 100 |  | > 100 |  |  |  | > 100 µM |  | > 100 |  | > 100
COC(=O)CC12CC(NC(=O)c3csc([C@@H](C[C@H](C(C)C)N(C)C(=O)[C@@H](NC(=O)[C@H]4CCCCN4C)C(C)C)OC(C)=O)n3)(C1)C2 | 0.00606 µM and 0.014 µM | > 33.3 | 0.00364 µM and 0.0055 µM | > 33.3 | 0.00441 µM and 0.00939 µM | > 33.3 | 0.00446 µM and 0.0121 µM | > 33.3 | 0.00491 |  | 0.00322 µM and 0.0116 µM | > 33.3 | 0.0659 µM and 0.122 µM |  | 0.00289 µM and 0.00759 µM | 0.0198 µM and 0.0269 µM |  |  | 0.0031 µM and 0.0114 µM | > 33.3
N#CCC(=O)N/N=C(/C(=O)Nc1ccccc1)C1C(=O)N(c2ccccc2)N=C1N (stereo unspecified) |  | > 100 |  | > 100 |  | > 100 |  | > 100 |  | > 100 |  | > 100 |  |  |  | > 100 µM |  | > 100 |  | > 100
c1ccc2c(CNCCCN3CCN(CCCNCc4cccc5ccccc45)CC3)cccc2c1 |  | 4.18 |  | 3.2 |  | 3.7 |  | 2.67 |  | 3.56 |  | 2.81 |  |  |  | 3.01 µM |  | 3.06 |  | 
COC(=O)C(=O)C(C(=O)C(=O)Nc1ccccc1C(N)=O)c1nc2ccc([N+](=O)[O-])cc2[nH]c1=O (stereo unspecified) |  | > 100 |  | > 100 |  | > 100 |  | > 100 |  | > 100 |  | > 100 |  |  |  | > 100 µM |  | > 100 |  | > 100
CCOC(=O)c1cc2c(OC)cc(OC)cc2oc1=O |  | > 100 |  | > 100 |  |  |  | > 100 |  | > 100 |  | > 100 |  | > 100 |  | > 100 µM |  | > 100 |  | > 100
O=[N+]([O-])c1cccc(C=NC23CC4CC(CC(C4)C2)C3)c1 |  | > 100 |  | > 100 |  | > 100 |  | > 100 |  | > 100 |  | > 100 |  |  |  | > 100 µM |  | > 100 |  | > 100
O=P1(O)c2ccccc2CSCc2ccccc21 |  | > 100 |  | > 100 |  | > 100 |  | > 100 |  |  |  | > 100 |  | > 100 |  | > 100 µM |  | > 100 |  | > 100
CCOC(=O)c1sc(Nc2cc(Cl)ccc2Cl)nc1C |  | > 100 |  | > 100 |  | > 100 |  | > 100 |  | > 100 |  | > 100 |  |  |  | > 100 µM |  | > 100 |  | > 100
O=C([CH-]C(=O)c1ccccc1)c1ccccc1.O=C([CH-]C(=O)c1ccccc1)c1ccccc1.[CH2-]CCC.[CH2-]CCC.[Sn+4] | 0.313 µM | 1.35 |  |  | 0.728 µM | 2.28 | 0.405 µM | 1.59 | 0.271 | 1.35 | 1.76 µM | 4.14 |  |  | 0.587 µM | 1.94 µM |  |  | 0.441 µM | 1.67

Reference: PubChem BioAssay (NCI)
